Measurements published in patent publication US20250009783A1, “SULFONATED HYALURONIC ACID COMPOUND, PREPARATION METHOD THEREFOR AND APPLICATION THEREOF” (UNIVERSITY OF MACAU, priority 2021, published 2025).

Tested on: CAGA-TGF-β activity reporter cells
Experiment: Test using TGF-β activity reporter cell (luciferase test)
Assay type: cell-based
Details: added alone: TGF-β 50 ng/ml, pro-TGF-β1 200 ng/ml, overnight, FIG. 6
Procedure: Method: CAGA-TGF-β activity reporter cells were plated (12-well plate) until the confluence reached 65%. Samples and reagents were added to different wells, respectively. The grouping and concentration were as follows. Group 1:2 ml of TGF-β (50 ng/ml); Group 2:2 ml of pro-TGF-β1 (200 ng/ml); Group 3:2 ml of LLC (200 ng/ml)+S-HA-9 (20 ug/ml); Group 4:2 ml of LLC (200 ng/ml)+PBS (1×); Group 5:2 ml of LLC (200 ng/ml)+S-HA-PBA-1 (20 ug/ml), the cells were stimulated overnight, the samples were collected, and cell lysate was obtained for luciferase test.

Substance | production of active TGF-β (reporter control groups)
proTGF-β: pro-TGF-β1, control group 2 of the reporter cell test (200 ng/ml) | stimulated the production of a very small amount of active TGF-β
TGF-β: transforming growth factor-β, control group 1 of the reporter cell test (50 ng/ml) | stimulated the production of active TGF-β
